Test results taken from patent publication US8541588B2, “Sulfonamide derivatives” (Pfizer Limited, priority 2009, dated 2013).

Each compound was assayed against T1, Nav1.7 (or SCN9A) channel; HEK cells stably transfected with hSCN9A (Homo sapiens, UniProt Q15858) (assay: Nav1.7 block, PatchXpress 7000 automated whole-cell voltage clamp, estimated IC50 (EIC50)). Conditions: PatchXpress platform; hSCN9A HEK cells held at V1/2 of inactivation; estimated IC50.
T1 construct: expressed in transfected cells
T1 sequence (Q15858 whole entry): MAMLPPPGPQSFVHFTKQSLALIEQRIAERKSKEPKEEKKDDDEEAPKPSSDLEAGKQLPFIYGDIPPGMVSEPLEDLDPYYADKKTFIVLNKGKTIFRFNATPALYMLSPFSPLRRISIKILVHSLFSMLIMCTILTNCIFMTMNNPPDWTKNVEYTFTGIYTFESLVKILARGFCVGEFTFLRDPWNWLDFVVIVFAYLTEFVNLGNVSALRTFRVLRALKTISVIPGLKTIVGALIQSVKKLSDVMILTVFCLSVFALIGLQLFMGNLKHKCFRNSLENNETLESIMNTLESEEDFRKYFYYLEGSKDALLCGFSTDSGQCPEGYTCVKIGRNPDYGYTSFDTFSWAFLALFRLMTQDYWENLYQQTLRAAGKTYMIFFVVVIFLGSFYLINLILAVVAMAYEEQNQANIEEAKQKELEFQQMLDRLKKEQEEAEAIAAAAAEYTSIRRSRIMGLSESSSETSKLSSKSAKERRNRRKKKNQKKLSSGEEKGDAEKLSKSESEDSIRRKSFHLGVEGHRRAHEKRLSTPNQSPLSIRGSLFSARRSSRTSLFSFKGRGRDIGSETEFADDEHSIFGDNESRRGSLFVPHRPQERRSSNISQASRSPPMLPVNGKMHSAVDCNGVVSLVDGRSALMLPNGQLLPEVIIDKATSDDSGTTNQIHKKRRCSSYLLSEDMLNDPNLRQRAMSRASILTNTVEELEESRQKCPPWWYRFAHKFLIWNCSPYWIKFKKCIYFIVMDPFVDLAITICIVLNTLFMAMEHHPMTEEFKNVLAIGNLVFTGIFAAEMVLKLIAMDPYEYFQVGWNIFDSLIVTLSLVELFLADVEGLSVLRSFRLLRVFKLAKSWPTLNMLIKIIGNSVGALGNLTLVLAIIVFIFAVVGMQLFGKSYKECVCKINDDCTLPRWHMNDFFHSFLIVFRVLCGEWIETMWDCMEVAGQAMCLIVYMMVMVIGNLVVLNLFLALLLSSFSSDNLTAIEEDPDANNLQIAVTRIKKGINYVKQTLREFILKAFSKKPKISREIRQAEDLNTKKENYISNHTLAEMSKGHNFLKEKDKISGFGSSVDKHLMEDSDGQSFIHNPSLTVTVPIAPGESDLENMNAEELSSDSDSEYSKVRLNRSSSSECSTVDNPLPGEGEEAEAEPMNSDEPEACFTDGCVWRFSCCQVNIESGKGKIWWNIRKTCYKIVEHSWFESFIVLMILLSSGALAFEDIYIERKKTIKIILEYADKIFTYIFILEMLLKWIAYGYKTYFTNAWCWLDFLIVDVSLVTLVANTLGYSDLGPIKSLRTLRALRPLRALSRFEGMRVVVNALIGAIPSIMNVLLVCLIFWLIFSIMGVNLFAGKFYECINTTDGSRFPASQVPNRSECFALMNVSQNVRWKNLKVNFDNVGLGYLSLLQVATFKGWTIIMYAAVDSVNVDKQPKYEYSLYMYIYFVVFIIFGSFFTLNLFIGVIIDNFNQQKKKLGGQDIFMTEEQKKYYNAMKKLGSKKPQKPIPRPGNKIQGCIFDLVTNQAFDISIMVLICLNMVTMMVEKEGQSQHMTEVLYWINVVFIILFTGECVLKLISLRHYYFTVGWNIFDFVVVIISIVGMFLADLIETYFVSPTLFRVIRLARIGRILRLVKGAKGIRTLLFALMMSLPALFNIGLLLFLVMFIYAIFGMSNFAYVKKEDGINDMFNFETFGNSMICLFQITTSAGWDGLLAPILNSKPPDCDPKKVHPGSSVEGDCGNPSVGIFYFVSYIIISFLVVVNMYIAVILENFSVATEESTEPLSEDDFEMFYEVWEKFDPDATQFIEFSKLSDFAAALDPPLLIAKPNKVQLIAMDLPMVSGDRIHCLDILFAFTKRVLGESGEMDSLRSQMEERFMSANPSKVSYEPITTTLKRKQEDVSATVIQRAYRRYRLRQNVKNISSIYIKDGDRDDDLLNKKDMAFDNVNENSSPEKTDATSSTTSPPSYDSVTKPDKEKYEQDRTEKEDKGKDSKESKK
Assay type: cell-based

Compound | IC50 [nM]
N#Cc1cc(S(=O)(=O)Nc2ncc(Cl)s2)ccc1Oc1ccccc1Oc1ccncc1 [Example 135, N-(5-chloro-1,3-thiazol-2-yl)-3-cyano-4-[2-(pyridin-4-yloxy)phenoxy]benzenesulfonamide] | 730
Cn1cc(-c2ccc(Cl)cc2)c(Oc2ccc(S(=O)(=O)Nc3ncc(Cl)s3)cc2C#N)n1 [Example 137, 4-{[4-(4-chlorophenyl)-1-methyl-1H-pyrazol-3-yl]oxy}-N-(5-chloro-1,3-thiazol-2-yl)-3-cyanobenzenesulfonamide] | 2590
N#Cc1cc(S(=O)(=O)Nc2nccs2)ccc1Oc1cc(C2CC2)nn1-c1cc(F)ccc1F [Example 195, 3-Cyano-4-[5-cyclopropyl-2-(2,5-difluoro-phenyl)-2H-pyrazol-3-yloxy]-N-thiazol-2-yl-benzenesulfonamide] | 1080
O=S(=O)(Nc1ncc(Cl)s1)c1ccc(Oc2ccccc2-c2ccccc2)c(F)c1 [Example 147, 4-(Biphenyl-2-yloxy)-N-(5-chloro-thiazol-2-yl)-3-fluoro-benzenesulfonamide] | 1510
N#Cc1cc(S(=O)(=O)Nc2nccs2)ccc1Oc1ccc(F)cc1-c1ccc(CCO)cc1 [Example 201, 3-cyano-4-{[5-fluoro-4′-(2-hydroxyethyl)biphenyl-2-yl]oxy}-N-1,3-thiazol-2-ylbenzenesulfonamide] | 420
N#Cc1cc(S(=O)(=O)Nc2nccs2)ccc1Oc1ccc(-n2ccc(C(F)(F)F)n2)cc1 [Example 183, 3-cyano-N-thiazol-2-yl-4-[4-(3-trifluoromethyl-pyrazol-1-yl)-phenoxy]-benzenesulfonamide] | 990
Cc1cccc(-c2cccc(F)c2)c1Oc1ccc(S(=O)(=O)Nc2ncns2)cc1C#N [Example 38, 3-cyano-4-[(3′-fluoro-3-methylbiphenyl-2-yl)oxy]-N-1,2,4-thiadiazol-5-ylbenzenesulfonamide] | 15500

Same assay, conditions: estimated IC50; hSCN9A HEK cells, PatchXpress platform; Examples 283-814

Compound | IC50 [nM]
CCc1cc(S(=O)(=O)Nc2cscn2)c(F)cc1Oc1ccc(F)cc1-c1ccnn1C [Example 627, 5-ethyl-2-fluoro-4-[4-fluoro-2-(1-methyl-1H-pyrazol-5-yl)phenoxy]-N-1,3-thiazol-4-ylbenzenesulfonamide] | 160
N#Cc1cc(S(=O)(=O)Nc2ncns2)ccc1Oc1ccc(Cl)cc1-c1cccc(CN)c1 [Example 511, 4-{[3′-(aminomethyl)-5-chlorobiphenyl-2-yl]oxy}-3-cyano-N-1,2,4-thiadiazol-5-ylbenzenesulfonamide] | 8.4
O=S(=O)(Nc1ncns1)c1cc(Cl)c(Oc2ccc(F)cc2-c2cn[nH]c2)cc1F [Example 755, 5-chloro-2-fluoro-4-[4-fluoro-2-(1H-pyrazol-4-yl)phenoxy]-N-1,2,4-thiadiazol-5-ylbenzenesulfonamide] | 2.4
CC(C)c1cc(-n2cc(Cl)cn2)ccc1Oc1ccc(S(=O)(=O)Nc2nccs2)cc1C#N [Example 353, 4-[4-(4-chloro-1H-pyrazol-1-yl)-2-isopropylphenoxy]-3-cyano-N-1,3-thiazol-2-ylbenzenesulfonamide] | 220
O=S(=O)(Nc1cscn1)c1ccc(Oc2ccc(OC(F)(F)F)cc2-c2cn[nH]c2)c(F)c1 [Example 612, 3-fluoro-4-[2-(1H-pyrazol-4-yl)-4-(trifluoromethoxy)phenoxy]-N-1,3-thiazol-4-ylbenzenesulfonamide] | 540
Cc1cc(S(=O)(=O)Nc2cscn2)c(F)cc1Oc1ccc(F)cc1-c1ccnn1C [Example 626, 2-fluoro-4-[4-fluoro-2-(1-methyl-1H-pyrazol-5-yl)phenoxy]-5-methyl-N-1,3-thiazol-4-ylbenzenesulfonamide] | 120
Cc1nc(-c2cccc(Oc3ccc(S(=O)(=O)Nc4ccc(F)cn4)cc3C#N)c2)no1 [Example 574, 3-cyano-N-(5-fluoropyridin-2-yl)-4-[3-(5-methyl-1,2,4-oxadiazol-3-yl)phenoxy]benzenesulfonamide] | >3000
Cn1nccc1-c1ccc(C(F)(F)F)cc1Oc1ccc(S(=O)(=O)Nc2nccs2)cc1C#N [Example 699, 3-cyano-4-[2-(1-methyl-1H-pyrazol-5-yl)-5-(trifluoromethyl)phenoxy]-N-1,3-thiazol-2-ylbenzenesulfonamide] | 140
Cc1cc(-c2cccc(Oc3ccc(S(=O)(=O)Nc4nccs4)cc3C#N)c2)n(CCN(C)C)n1 [Example 481, 3-cyano-4-(3-{1-[2-(dimethylamino)ethyl]-3-methyl-1H-pyrazol-5-yl}phenoxy)-N-1,3-thiazol-2-ylbenzenesulfonamide] | 1700
CN(C)CCn1nc(C(F)(F)F)cc1-c1cccc(Oc2ccc(S(=O)(=O)Nc3nccs3)cc2C#N)c1 [Example 550, 3-cyano-4-(3-{1-[2-(dimethylamino)ethyl]-3-(trifluoromethyl)-1H-pyrazol-5-yl}phenoxy)-N-1,3-thiazol-2-ylbenzenesulfonamide] | 200
N#Cc1cc(S(=O)(=O)Nc2nccs2)ccc1Oc1cccc(-c2ccn[nH]2)c1 [Example 444, 3-cyano-4-[3-(1H-pyrazol-5-yl)phenoxy]-N-1,3-thiazol-2-ylbenzenesulfonamide] | 9900
O=S(=O)(Nc1nncs1)c1cc(Cl)c(Oc2ccc(Cl)cc2-c2cn[nH]c2)cc1F [Example 564, 5-chloro-4-[4-chloro-2-(1H-pyrazol-4-yl)phenoxy]-2-fluoro-N-1,3,4-thiadiazol-2-ylbenzenesulfonamide] | 9.2
Cn1nccc1-c1cc(CCCO)ccc1Oc1ccc(S(=O)(=O)Nc2ncc(F)s2)cc1C#N [Example 715, 3-cyano-N-(5-fluoro-1,3-thiazol-2-yl)-4-[4-(3-hydroxypropyl)-2-(1-methyl-1H-pyrazol-5-yl)phenoxy]benzenesulfonamide] | 210
N#Cc1cc(S(=O)(=O)Nc2ncc(Cl)s2)ccc1Oc1ccc(Cl)cc1-c1cn[nH]c1 [Example 786, N-(5-Chloro-1,3-thiazol-2-yl)-3-cyano-4-[4-chloro-2-(1H-pyrazol-4-yl)phenoxy]benzenesulfonamide] | 7.6
Cn1nccc1-c1ccc(I)cc1Oc1ccc(S(=O)(=O)Nc2nccs2)cc1C#N [Example 359, 3-cyano-4-[5-iodo-2-(1-methyl-1H-pyrazol-5-yl)phenoxy]-N-1,3-thiazol-2-ylbenzenesulfonamide] | 11
CCn1cc(C(F)(F)F)nc1-c1ccc(Oc2ccc(S(=O)(=O)Nc3nccs3)cc2C#N)cc1 [Example 316, 3-cyano-4-{4-[1-ethyl-4-(trifluoromethyl)-1H-imidazol-2-yl]phenoxy}-N-1,3-thiazol-2-ylbenzenesulfonamide] | 740
CCn1nc(C(F)(F)F)cc1-c1ccc(Oc2ccc(S(=O)(=O)Nc3ccc(F)cn3)cc2C#N)cc1 [Example 367, 3-cyano-4-{4-[1-ethyl-3-(trifluoromethyl)-1H-pyrazol-5-yl]phenoxy}-N-(5-fluoropyridin-2-yl)benzenesulfonamide] | 2400
N#Cc1cc(S(=O)(=O)Nc2nccs2)ccc1Oc1ccc(Cl)cc1C1CNC1 [Example 690, 4-(2-azetidin-3-yl-4-chlorophenoxy)-3-cyano-N-1,3-thiazol-2-ylbenzenesulfonamide] | 110
N#Cc1cc(S(=O)(=O)Nc2nccs2)ccc1Oc1cccc(-c2cccc(C(F)(F)F)n2)c1 [Example 448, 3-cyano-N-1,3-thiazol-2-yl-4-{3-[6-(trifluoromethyl)pyridin-2-yl]phenoxy}benzenesulfonamide] | 2000
Cn1nccc1-c1cc(F)ccc1Oc1ccc(S(=O)(=O)Nc2ncc(Cl)s2)cc1C#N [Example 596, N-(5-Chloro-1,3-thiazol-2-yl)-3-cyano-4-[4-fluoro-2-(1-methyl-1H-pyrazol-5-yl)phenoxy]benzenesulfonamide] | 79

Same assay, conditions: estimated IC50; hSCN9A HEK cells, PatchXpress platform; Examples 815-1040

Compound | IC50 [nM]
O=S(=O)(Nc1cscn1)c1cc(F)c(Oc2ccc(C(F)(F)F)cc2-c2ccnnc2)cc1F [Example 954, 2,5-difluoro-4-[2-pyridazin-4-yl-4-(trifluoromethyl)phenoxy]-N-1,3-thiazol-4-ylbenzenesulfonamide] | 240
CCOc1nnc(NS(=O)(=O)c2ccc(Oc3ccc(Cl)cc3-c3ccnn3C)c(C#N)c2)s1 [Example 886, 4-[4-chloro-2-(1-methyl-1H-pyrazol-5-yl)phenoxy]-3-cyano-N-(5-ethoxy-1,3,4-thiadiazol-2-yl)benzenesulfonamide] | 6200
Nc1cc(-c2cc(Cl)ccc2Oc2ccc(S(=O)(=O)Nc3cccnn3)cc2Cl)ccn1 [Example 1014, 4-[2-(2-aminopyridin-4-yl)-4-chlorophenoxy]-3-chloro-N-pyridazin-3-ylbenzenesulfonamide] | 10
N#Cc1cc(S(=O)(=O)Nc2cccs2)ccc1Oc1ccccc1-c1ccccc1 [Example 1007, 4-(biphenyl-2-yloxy)-3-cyano-N-2-thienylbenzenesulfonamide] | 3300
N#Cc1cc(S(=O)(=O)Nc2ncns2)ccc1Oc1ccc(Cl)cc1-c1cc(N2CCC2)ncn1 [Example 877, 4-[2-(6-azetidin-1-ylpyrimidin-4-yl)-4-chlorophenoxy]-3-cyano-N-1,2,4-thiadiazol-5-ylbenzenesulfonamide] | 470
N#Cc1cc(S(=O)(=O)Nc2ncns2)ccc1Oc1cc(F)c(Cl)cc1-c1ccnnc1 [Example 924, 4-(4-chloro-5-fluoro-2-pyridazin-4-ylphenoxy)-3-cyano-N-1,2,4-thiadiazol-5-ylbenzenesulfonamide] | 19
O=S(=O)(Nc1nncs1)c1cc(Cl)c(Oc2cc(F)c(C(F)(F)F)cc2-c2ccnnc2)cc1F [Example 1034, 5-Chloro-2-fluoro-4-[5-fluoro-2-pyridazin-4-yl-4-(trifluoromethyl)phenoxy]-N-1,3,4-thiadiazol-2-ylbenzenesulfonamide] | 11
N#Cc1cc(S(=O)(=O)Nc2ccc(F)cn2)ccc1Oc1ccccc1C1CCCCO1 (stereo not drawn) [Example 1005, 3-cyano-N-(5-fluoropyridin-2-yl)-4-[2-(tetrahydro-2H-pyran-2-yl)phenoxy]benzenesulfonamide] | >3000
Nc1cc(-c2cc(F)ccc2Oc2cc(F)c(S(=O)(=O)Nc3ccncn3)cc2Cl)ccn1 [Example 972, 4-[2-(2-aminopyridin-4-yl)-4-fluorophenoxy]-5-chloro-2-fluoro-N-pyrimidin-4-ylbenzenesulfonamide] | 25
